We go through one compound from patent US9393447B2, “Liquid non-ionic salt-free skin and hair treatment composition that contains Lauroyl N-Methyl Glucamide” (Formula XO, Inc., priority 2013, dated 2016).

SMILES strings stand for the structures.

The nature of data set [1]: Temperature at which LMG solutions solidify (gel) on cooling. The format is physicochemical. Here is the method:
The pH was then adjusted to 4-5 with HC1. Separate solutions were also prepared with increasing final concentrations of decyl glucoside: 0.0, 0.5, 1.0, 2.0, 3.0, 4.0, 5.0, 6.0. The compositions were brought into clear, colorless single phase solutions by heating to 60° C. The solutions were then cooled in a refrigerated chamber and the temperature at which gelling occurred was noted. As the concentration of decyl glucoside increased the temperature at which the LMG solution gelled decreased, forming a non-gelling glass at decyl glucoside concentrations of 5% and above. Thus the addition of decyl glucoside at concentrations of 5% or greater to a solution of 10% LMG and 10% glycerol prevents stable gel formation, even at temperatures as low as −20° C.
Composition A was prepared as described in the above table.
At room temperature the solution was viscous in consistency. The solution solidified at 15° C. […] Such phase transitions in a commercial product are unacceptable.

Consider `CCCCCCCCCCCC(=O)N(C)CC(O)C(O)C(O)C(O)CO` (stereo not drawn) [LMG, Lauroyl N-Methyl Glucamide], for which the melting point is ~ 60 °C. In addition, the “Physical state of solution” value in data set [1] (0.2 wt % solution of LMG in water, 4° C.) is recorded as “loose jelly-like solution”. For the same compound, in data set [1] (LMG 5-15 wt % in water), the “Temperature at which hard gels form” value is “about 35 °C”.
